Reference: patent US20260053811A1, “METHODS OF TREATING HYPERTENSION IN OBESE SUBJECTS” (Mineralys Therapeutics, Inc., priority 2022, published 2026)

Test system: hypertensive subjects
Assay: Seated automated office blood pressure (AOBP) in randomized, placebo-controlled, dose-ranging study
Type: in vivo, human
Description: A randomized, double-blinded, placebo-controlled, dose-ranging, multicenter study was conducted to evaluate the effect of orally administered Compound A HBr on blood pressure for the treatment of hypertension in male and female subjects ≥18 years of age.
The study consists of two parts. For enrollment into Part 1 of the study, a subject's value of plasma renin activity (PRA) must be ≤1 ng/mL/h based on morning measurement. If the value of PRA >1 ng/mL/h based on morning measurement, then subjects may be eligible to enter Part 2 of the study.
For Part 1, 163 enrolled subjects ≥18 years of age were randomized into 6 equal treatment groups (1:1:1:1:1:1) to 12.5 mg BID, 25 mg BID, 12.5 mg QD, 50 mg QD, 100 mg QD, or placebo. After a review of interim clinical data, the 2 lowest dose levels (12.5 mg QD and 12.5 mg BID) were stopped for future randomization due to a lack of consistent meaningful reduction of blood pressure, but the patients randomized to that point remained in the study through completion. Thus, after the review of interim clinical data, subjects were randomized into 4 equal treatment groups (1:1:1:1) to 25 mg BID, 50 mg QD, 100 mg QD, or placebo.
For Part 2, 36 enrolled subjects ≥18 years of age were randomized (5:1) to either 100 mg QD Compound A HBr or placebo such that the Compound A HBr treatment group consisted of approximately 30 subjects and the placebo treatment group will consist of approximately 6 subjects.
Subjects orally administered the assigned study drug (Compound A HBr or placebo) according to the assigned dosing regimen for 8 weeks beginning on Study Day 1. All subjects in Part 1 (regardless of dosing group) received BID dosing to preserve the integrity of the blind; active drug is administered as the morning dose for all QD dose groups. Subjects returned to the research facility or were seen by the clinical investigator or approved home health care professional at the end of Study Weeks 1, 2, 3, 4, 5, 6, 7, and 8 (±2 days) for protocol-defined efficacy and safety assessments and procedures, assessment of adverse events (AEs), and confirmation of compliance with study drug usage. Subjects also completed a telephone visit and blood pressure (BP) check at home approximately 3 days post last dose of study drug. Subjects attended up to 14 full clinic visits, including a pre-Screening visit, a Screening/start of Placebo Run-in visit, a second visit during Placebo Run-in, a clinic visit to initiate the ABPM procedure, a Randomization visit, 8 weekly visits during double-blind treatment, and an end-of-study visit scheduled 4 weeks after the last study treatment for final efficacy and safety assessments.
An automated oscillometric sphygmomanometer device was used to measure the subjects' systolic and diastolic blood pressure in office after approximately 5 minutes of rest in the seated position.
The primary endpoint is the change in office-measured (mean of last 2 of 5 unattended measurements using an automated oscillometric sphygmomanometer device after approximately 5 minutes of rest in the seated position) systolic blood pressure (SBP) from baseline to the end of Study Week 8.
Secondary endpoints of this study were: • (a) Change in 24-hour ambulatory blood pressure monitoring (ABPM) parameters (systolic and diastolic) from baseline to the end of Study Week 7. • (b) Change in office-measured SBP from baseline to the end of Study Weeks 1, 2, 3, 4, 5, 6, and 7. • (c) Change in office-measured diastolic blood pressure (DBP) from baseline to the end of Study Weeks 1, 2, 3, 4, 5, 6, 7, and 8. • (d) Proportion of subjects who achieve office-measured BP of ≤130/80 mm Hg by the end of Study Week 8.

[1] = Part 2, 100 mg QD, Thiazide Diuretic Use at Baseline Yes
[2] = Part 2, 100 mg QD, subgroup ACEi/ARBs No (n 1)
[3] = Part 2, 100 mg QD, subgroup ACEi/ARBs Yes
[4] = Part 2, 100 mg QD, subgroup AHTs 2
[5] = Part 2, 100 mg QD, subgroup AHTs ≥3
[6] = Part 2, 100 mg QD, subgroup Age 65-79 yr
[7] = Part 2, 100 mg QD, subgroup Age <65 yr
[8] = Part 2, 100 mg QD, subgroup Age ≥80 yr (n 1)
[9] = Part 2, 100 mg QD, subgroup BMI 25-30 kg/m^2
[10] = Part 2, 100 mg QD, subgroup BMI <25 kg/m^2
[11] = Part 2, 100 mg QD, subgroup BMI >30 kg/m^2
[12] = Part 2, 100 mg QD, subgroup PRA 1-5 ng/mL/hr
[13] = Part 2, 100 mg QD, subgroup PRA >5 ng/mL/hr
[14] = Part 2, 100 mg QD, subgroup Race Black or AA
[15] = Part 2, 100 mg QD, subgroup Race Other
[16] = Part 2, 100 mg QD, subgroup Seated SBP Tertile High
[17] = Part 2, 100 mg QD, subgroup Seated SBP Tertile Low
[18] = Part 2, 100 mg QD, subgroup Seated SBP Tertile Middle
[19] = Part 2, 100 mg QD, subgroup Sex Female
[20] = Part 2, 100 mg QD, subgroup Sex Male
[21] = pooled 50 mg QD, 100 mg QD, 12.5 mg BID and 25 mg BID cohorts (N=103)
[22] = pooled 50 mg QD, 100 mg QD, 12.5 mg BID, 25 mg BID cohorts, week 8

Structure (SMILES): CC(=O)N[C@H]1CC[C@H](NC(=O)CN2CCN(c3nncc(-c4ccc(C)cc4)n3)CC2)CC1 [Compound A HBr]
- Mean Automated Office-Measured Systolic Blood Pressure at Wk 8 [1]: 131.72 mmHg
- Mean Change from Baseline at Week 8 in Automated Office-Measured Systolic Blood Pressure [1]: −10.50 mmHg
- Automated Office-Measured Diastolic Blood Pressure, Wk 8, mean [2]: 87.00 mmHg
- Change from Baseline at Week 8 in Automated Office-Measured Diastolic Blood Pressure, mean [2]: 0.00 mmHg
- Automated Office-Measured Diastolic Blood Pressure, Wk 8, mean [3]: 71.66 mmHg
- Change from Baseline at Week 8 in Automated Office-Measured Diastolic Blood Pressure, mean [3]: −5.88 mmHg
- Automated Office-Measured Diastolic Blood Pressure, Wk 8, mean [4]: 71.58 mmHg
- Change from Baseline at Week 8 in Automated Office-Measured Diastolic Blood Pressure, mean [4]: −6.21 mmHg
- Automated Office-Measured Diastolic Blood Pressure, Wk 8, mean [5]: 73.18 mmHg
- Change from Baseline at Week 8 in Automated Office-Measured Diastolic Blood Pressure, mean [5]: −4.77 mmHg
- Automated Office-Measured Diastolic Blood Pressure, Wk 8, mean [6]: 72.38 mmHg
- Change from Baseline at Week 8 in Automated Office-Measured Diastolic Blood Pressure, mean [6]: −3.83 mmHg
- Automated Office-Measured Diastolic Blood Pressure, Wk 8, mean [7]: 72.50 mmHg
- Change from Baseline at Week 8 in Automated Office-Measured Diastolic Blood Pressure, mean [7]: −10.38 mmHg
- Automated Office-Measured Diastolic Blood Pressure, Wk 8, mean [8]: 65.00 mmHg
- Change from Baseline at Week 8 in Automated Office-Measured Diastolic Blood Pressure, mean [8]: −7.00 mmHg
- Automated Office-Measured Diastolic Blood Pressure, Wk 8, mean [9]: 70.40 mmHg
- Change from Baseline at Week 8 in Automated Office-Measured Diastolic Blood Pressure, mean [9]: −6.10 mmHg
- Automated Office-Measured Diastolic Blood Pressure, Wk 8, mean [10]: 77.00 mmHg
- Change from Baseline at Week 8 in Automated Office-Measured Diastolic Blood Pressure, mean [10]: −1.25 mmHg
- Automated Office-Measured Diastolic Blood Pressure, Wk 8, mean [11]: 73.46 mmHg
- Change from Baseline at Week 8 in Automated Office-Measured Diastolic Blood Pressure, mean [11]: −5.88 mmHg
- Automated Office-Measured Diastolic Blood Pressure, Wk 8, mean [12]: 71.93 mmHg
- Change from Baseline at Week 8 in Automated Office-Measured Diastolic Blood Pressure, mean [12]: −2.14 mmHg
- Automated Office-Measured Diastolic Blood Pressure, Wk 8, mean [13]: 71.29 mmHg
- Change from Baseline at Week 8 in Automated Office-Measured Diastolic Blood Pressure, mean [13]: −11.79 mmHg
- Automated Office-Measured Diastolic Blood Pressure, Wk 8, mean [14]: 72.00 mmHg
- Change from Baseline at Week 8 in Automated Office-Measured Diastolic Blood Pressure, mean [14]: −4.67 mmHg
- Automated Office-Measured Diastolic Blood Pressure, Wk 8, mean [15]: 72.21 mmHg
- Change from Baseline at Week 8 in Automated Office-Measured Diastolic Blood Pressure, mean [15]: −5.94 mmHg
- Automated Office-Measured Diastolic Blood Pressure, Wk 8, mean [16]: 72.09 mmHg
- Change from Baseline at Week 8 in Automated Office-Measured Diastolic Blood Pressure, mean [16]: −4.14 mmHg
- Automated Office-Measured Diastolic Blood Pressure, Wk 8, mean [17]: 72.33 mmHg
- Change from Baseline at Week 8 in Automated Office-Measured Diastolic Blood Pressure, mean [17]: −6.78 mmHg
- Automated Office-Measured Diastolic Blood Pressure, Wk 8, mean [18]: 72.10 mmHg
- Change from Baseline at Week 8 in Automated Office-Measured Diastolic Blood Pressure, mean [18]: −6.40 mmHg
- Automated Office-Measured Diastolic Blood Pressure, Wk 8, mean [19]: 70.75 mmHg
- Change from Baseline at Week 8 in Automated Office-Measured Diastolic Blood Pressure, mean [19]: −6.28 mmHg
- Automated Office-Measured Diastolic Blood Pressure, Wk 8, mean [20]: 75.00 mmHg
- Change from Baseline at Week 8 in Automated Office-Measured Diastolic Blood Pressure, mean [20]: −4.50 mmHg
- Blood pressure reduction by background thiazide diuretic (across dosing cohorts): particularly effective at reducing the blood pressure of individuals who were receiving a thiazide diuretic
- Blood pressure reduction by body mass index (BMI) (across dosing cohorts): particularly effective at reducing the blood pressure of individuals with a body mass index (BMI) of greater than 30
- Subjects with change in BPsys >−15 mmHg [21]: 41%
- Subjects with change in BPsys >−25 mmHg [21]: 25%
- Subjects achieving >−23 mmHg fall in systolic blood pressure [22]: 25%
- Subjects achieving ≥15 mmHg fall in systolic blood pressure [22]: 41%
